Source: ChEMBL document CHEMBL1201862, “PubChem BioAssay data set” (2004)
The source made the active and inactive calls.

Assays:
Assay type in all cases: functional
[1] = molecular target: MAP kinase-activated protein kinase 5 (Homo sapiens, UniProt Q8IW41);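 also: measured as one member of a kinome panel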
[2] = molecular target: T1, cGMP-dependent protein kinase 1 (Homo sapiens, UniProt Q13976);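 also: value from a kinome panel screen with PRKG1 as the panel member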
T1 sequence (Q13976 whole entry): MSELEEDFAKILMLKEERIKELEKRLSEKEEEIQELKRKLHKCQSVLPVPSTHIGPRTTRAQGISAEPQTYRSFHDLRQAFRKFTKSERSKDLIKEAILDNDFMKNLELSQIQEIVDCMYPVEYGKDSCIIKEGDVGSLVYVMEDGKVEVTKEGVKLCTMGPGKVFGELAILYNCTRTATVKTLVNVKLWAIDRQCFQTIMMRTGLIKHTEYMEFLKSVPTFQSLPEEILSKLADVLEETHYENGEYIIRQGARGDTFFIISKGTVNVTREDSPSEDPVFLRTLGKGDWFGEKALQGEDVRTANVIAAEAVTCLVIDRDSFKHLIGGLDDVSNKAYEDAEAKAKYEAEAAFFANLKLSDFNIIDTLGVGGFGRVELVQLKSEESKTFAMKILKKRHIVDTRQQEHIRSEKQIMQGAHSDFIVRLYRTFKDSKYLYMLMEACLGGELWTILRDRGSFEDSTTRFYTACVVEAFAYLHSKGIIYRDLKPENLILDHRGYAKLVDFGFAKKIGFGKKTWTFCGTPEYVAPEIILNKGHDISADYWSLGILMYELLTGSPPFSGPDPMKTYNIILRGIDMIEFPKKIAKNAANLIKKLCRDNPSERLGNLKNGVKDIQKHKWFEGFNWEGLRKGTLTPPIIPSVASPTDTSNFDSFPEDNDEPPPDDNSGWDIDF

[3] = molecular target: Insulin-like growth factor 1 receptor (Homo sapiens, UniProt P08069); test: Navigating the Kinome. Panel member name: IGF1R
[4] = molecular target: Tyrosine-protein kinase Srms (Homo sapiens, UniProt Q9H3Y6);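 also: SRMS measured as one member of a kinome-wide kinase profiling panel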
Misshapen-like kinase 1 = Misshapen-like kinase 1 (Homo sapiens, UniProt Q8N4C8);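 also: kinome panel screen with MINK as the panel member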
[5] = molecular target: Glycogen synthase kinase-3 alpha (Homo sapiens, UniProt P49840);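 also: GSK3A result taken from a broad kinome-wide kinase panel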
[6] = molecular target: Tyrosine-protein kinase JAK2 (Homo sapiens, UniProt O60674);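 also: JAK2 tested as one member of a kinase panel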
[7] = molecular target: Tyrosine-protein kinase ABL1 (Homo sapiens, UniProt P00519)
[8] = molecular target: Calcium/calmodulin-dependent protein kinase type II subunit delta (Homo sapiens, UniProt Q13557)
[9] = molecular target: Casein kinase I isoform alpha (Homo sapiens, UniProt P48729)
[10] = molecular target: T2, cAMP-dependent protein kinase catalytic subunit PRKX (Homo sapiens, UniProt P51817)
T2 sequence (P51817 whole entry): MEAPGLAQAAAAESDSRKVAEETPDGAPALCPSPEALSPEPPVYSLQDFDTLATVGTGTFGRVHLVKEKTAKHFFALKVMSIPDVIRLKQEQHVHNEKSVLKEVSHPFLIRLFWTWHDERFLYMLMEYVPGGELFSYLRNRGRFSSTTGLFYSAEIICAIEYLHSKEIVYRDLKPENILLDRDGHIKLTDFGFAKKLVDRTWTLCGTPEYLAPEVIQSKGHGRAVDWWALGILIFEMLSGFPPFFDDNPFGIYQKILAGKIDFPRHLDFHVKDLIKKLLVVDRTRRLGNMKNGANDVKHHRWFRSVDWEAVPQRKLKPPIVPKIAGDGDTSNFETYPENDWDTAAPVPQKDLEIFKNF

[11] = molecular target: Testis-specific serine/threonine-protein kinase 1 (Homo sapiens, UniProt Q9BXA7)
[12] = molecular target: T3, Receptor-type tyrosine-protein kinase FLT3 (Homo sapiens, UniProt P36888);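 also: FLT3 was tested as one member of a kinome-wide kinase panel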
T3 sequence (P36888 whole entry): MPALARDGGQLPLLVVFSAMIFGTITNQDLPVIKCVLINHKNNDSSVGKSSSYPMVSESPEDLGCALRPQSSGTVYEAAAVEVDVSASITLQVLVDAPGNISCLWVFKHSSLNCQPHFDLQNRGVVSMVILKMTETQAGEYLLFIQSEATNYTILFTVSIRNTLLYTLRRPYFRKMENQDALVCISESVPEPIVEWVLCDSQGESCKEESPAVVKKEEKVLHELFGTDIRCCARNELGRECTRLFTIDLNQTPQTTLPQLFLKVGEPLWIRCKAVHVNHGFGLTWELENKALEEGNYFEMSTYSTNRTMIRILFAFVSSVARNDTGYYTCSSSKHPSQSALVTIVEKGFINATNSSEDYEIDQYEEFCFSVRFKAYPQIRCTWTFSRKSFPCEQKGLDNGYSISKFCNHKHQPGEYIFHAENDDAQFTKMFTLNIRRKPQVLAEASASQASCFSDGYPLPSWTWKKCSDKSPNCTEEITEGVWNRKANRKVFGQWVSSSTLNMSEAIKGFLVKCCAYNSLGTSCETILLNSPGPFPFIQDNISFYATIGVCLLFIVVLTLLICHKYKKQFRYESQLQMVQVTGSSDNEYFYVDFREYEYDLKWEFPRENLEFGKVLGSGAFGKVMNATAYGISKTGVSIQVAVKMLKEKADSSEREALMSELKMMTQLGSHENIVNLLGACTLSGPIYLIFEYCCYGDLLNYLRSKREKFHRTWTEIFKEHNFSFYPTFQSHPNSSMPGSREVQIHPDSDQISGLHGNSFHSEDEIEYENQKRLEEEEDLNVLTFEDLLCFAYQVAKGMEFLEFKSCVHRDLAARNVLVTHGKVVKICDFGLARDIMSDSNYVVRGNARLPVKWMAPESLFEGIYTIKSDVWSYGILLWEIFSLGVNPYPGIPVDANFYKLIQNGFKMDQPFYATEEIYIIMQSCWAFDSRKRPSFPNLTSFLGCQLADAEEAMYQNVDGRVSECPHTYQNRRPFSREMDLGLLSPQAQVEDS

[13] = molecular target: Proto-oncogene tyrosine-protein kinase Src (Homo sapiens, UniProt P12931);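 also: SRC entry within a kinome-wide kinase profiling panel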
SRSF protein kinase 1 = SRSF protein kinase 1 (Homo sapiens, UniProt Q96SB4);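 also: measured as one member of a kinome-wide kinase profiling panel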
[14] = molecular target: Proto-oncogene tyrosine-protein kinase receptor Ret (Homo sapiens, UniProt P07949);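 also: measured within a kinome-wide profiling panel, RET as the panel member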

Chain of Casein kinase I isoform alpha (P48729 whole entry, canonical isoform): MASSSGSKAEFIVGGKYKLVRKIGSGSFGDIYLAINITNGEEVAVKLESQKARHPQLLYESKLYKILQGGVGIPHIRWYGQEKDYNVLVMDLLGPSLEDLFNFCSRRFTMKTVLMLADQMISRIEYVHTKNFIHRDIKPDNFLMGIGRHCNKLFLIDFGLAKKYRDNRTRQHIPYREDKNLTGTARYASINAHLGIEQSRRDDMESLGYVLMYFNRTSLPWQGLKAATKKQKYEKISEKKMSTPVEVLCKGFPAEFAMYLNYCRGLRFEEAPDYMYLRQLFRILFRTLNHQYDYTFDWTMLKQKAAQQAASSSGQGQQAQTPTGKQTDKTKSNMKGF
Chain of Misshapen-like kinase 1 (Q8N4C8 whole entry): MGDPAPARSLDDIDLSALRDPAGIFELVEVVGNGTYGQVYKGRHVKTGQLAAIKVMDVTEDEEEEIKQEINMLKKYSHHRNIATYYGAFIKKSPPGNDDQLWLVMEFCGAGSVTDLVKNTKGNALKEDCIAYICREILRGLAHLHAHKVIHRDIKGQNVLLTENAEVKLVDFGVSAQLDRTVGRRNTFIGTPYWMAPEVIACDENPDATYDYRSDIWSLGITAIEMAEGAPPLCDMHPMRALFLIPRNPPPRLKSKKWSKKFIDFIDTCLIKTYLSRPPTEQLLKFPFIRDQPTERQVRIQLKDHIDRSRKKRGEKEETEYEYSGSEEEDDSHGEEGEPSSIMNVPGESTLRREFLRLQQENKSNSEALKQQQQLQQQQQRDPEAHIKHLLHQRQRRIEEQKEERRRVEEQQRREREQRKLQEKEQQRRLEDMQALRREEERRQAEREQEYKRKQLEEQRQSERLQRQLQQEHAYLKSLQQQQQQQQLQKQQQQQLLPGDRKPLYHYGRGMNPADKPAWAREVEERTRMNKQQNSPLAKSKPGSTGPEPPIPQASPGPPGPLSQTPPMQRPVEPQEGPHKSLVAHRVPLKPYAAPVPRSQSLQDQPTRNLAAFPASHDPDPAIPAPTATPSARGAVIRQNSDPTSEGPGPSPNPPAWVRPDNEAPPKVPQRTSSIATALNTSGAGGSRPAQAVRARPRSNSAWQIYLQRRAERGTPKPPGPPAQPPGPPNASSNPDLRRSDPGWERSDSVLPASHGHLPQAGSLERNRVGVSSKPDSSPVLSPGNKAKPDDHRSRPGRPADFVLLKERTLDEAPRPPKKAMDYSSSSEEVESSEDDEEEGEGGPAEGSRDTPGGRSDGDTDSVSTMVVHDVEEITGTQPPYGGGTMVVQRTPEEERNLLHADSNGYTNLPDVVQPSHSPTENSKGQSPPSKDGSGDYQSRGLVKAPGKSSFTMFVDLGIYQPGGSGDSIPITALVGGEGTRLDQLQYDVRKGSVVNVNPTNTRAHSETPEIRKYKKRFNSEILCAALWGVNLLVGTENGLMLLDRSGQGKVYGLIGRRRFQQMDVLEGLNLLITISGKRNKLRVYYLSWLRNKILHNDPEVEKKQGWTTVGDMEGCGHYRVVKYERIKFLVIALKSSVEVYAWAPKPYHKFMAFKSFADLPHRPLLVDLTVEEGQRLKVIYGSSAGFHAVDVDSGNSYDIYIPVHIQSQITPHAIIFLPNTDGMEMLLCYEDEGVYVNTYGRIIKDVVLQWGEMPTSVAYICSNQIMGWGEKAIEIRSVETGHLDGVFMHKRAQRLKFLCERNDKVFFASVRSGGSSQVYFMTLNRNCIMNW
Chain of Glycogen synthase kinase-3 alpha (P49840 whole entry): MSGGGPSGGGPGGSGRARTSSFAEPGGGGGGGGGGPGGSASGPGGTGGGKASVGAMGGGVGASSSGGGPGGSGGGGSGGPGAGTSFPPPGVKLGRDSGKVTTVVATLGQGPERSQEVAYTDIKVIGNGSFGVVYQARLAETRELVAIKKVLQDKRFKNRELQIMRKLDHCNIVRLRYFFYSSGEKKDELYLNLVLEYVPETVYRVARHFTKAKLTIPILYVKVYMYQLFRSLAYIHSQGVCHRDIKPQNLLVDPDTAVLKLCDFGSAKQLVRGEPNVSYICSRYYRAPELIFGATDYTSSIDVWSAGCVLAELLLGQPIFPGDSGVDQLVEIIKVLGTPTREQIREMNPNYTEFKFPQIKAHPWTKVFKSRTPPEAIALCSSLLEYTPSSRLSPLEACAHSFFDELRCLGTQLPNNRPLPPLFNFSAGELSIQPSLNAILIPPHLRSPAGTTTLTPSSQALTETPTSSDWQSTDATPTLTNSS
Chain of SRSF protein kinase 1 (Q96SB4 whole entry): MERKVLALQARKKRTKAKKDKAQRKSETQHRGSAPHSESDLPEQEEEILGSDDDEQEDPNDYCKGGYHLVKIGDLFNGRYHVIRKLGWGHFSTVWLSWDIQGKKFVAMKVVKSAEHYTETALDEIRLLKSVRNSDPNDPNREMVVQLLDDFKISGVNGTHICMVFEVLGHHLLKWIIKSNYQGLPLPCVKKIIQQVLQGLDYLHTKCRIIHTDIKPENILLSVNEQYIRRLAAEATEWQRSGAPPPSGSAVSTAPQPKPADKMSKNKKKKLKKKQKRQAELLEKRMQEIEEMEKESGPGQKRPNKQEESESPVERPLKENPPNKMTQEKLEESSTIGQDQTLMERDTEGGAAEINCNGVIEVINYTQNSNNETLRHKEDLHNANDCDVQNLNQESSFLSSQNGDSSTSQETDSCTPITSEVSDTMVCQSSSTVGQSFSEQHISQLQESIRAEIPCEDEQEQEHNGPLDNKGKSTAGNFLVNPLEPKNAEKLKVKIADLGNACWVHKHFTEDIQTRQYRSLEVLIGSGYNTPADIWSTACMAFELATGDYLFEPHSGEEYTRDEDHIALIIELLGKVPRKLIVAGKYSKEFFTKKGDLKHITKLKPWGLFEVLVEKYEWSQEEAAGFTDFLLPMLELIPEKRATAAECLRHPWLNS
Chain of Tyrosine-protein kinase JAK2 (O60674 whole entry): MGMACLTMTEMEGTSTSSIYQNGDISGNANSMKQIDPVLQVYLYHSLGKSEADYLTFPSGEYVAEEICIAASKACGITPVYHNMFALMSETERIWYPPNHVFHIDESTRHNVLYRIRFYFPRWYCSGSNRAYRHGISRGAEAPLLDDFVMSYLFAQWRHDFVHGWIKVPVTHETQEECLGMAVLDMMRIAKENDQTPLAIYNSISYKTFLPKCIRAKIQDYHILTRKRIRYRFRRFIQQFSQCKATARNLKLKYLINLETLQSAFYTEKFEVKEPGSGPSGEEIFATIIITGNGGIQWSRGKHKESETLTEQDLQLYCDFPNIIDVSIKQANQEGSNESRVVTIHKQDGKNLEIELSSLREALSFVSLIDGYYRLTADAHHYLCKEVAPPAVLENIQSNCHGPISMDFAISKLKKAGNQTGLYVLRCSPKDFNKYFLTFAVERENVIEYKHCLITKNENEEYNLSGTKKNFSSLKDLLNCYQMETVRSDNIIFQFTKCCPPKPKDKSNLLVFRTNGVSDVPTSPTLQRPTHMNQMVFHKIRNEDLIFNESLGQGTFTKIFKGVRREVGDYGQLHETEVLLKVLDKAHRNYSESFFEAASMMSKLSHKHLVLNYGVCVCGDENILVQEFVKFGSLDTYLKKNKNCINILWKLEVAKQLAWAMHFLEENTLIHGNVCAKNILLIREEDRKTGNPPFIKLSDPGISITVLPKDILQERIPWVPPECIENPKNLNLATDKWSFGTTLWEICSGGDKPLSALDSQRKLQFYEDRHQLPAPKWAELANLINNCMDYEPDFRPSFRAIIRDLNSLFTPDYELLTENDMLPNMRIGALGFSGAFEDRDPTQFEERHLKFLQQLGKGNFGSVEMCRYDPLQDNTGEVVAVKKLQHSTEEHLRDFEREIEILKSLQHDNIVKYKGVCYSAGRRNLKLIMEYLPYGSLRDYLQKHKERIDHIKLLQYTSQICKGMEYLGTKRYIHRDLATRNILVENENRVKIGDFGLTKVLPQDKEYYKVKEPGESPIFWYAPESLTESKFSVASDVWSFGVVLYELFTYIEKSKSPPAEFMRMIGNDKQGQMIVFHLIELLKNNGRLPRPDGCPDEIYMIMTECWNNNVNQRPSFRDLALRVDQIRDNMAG
Chain of Testis-specific serine/threonine-protein kinase 1 (Q9BXA7 whole entry): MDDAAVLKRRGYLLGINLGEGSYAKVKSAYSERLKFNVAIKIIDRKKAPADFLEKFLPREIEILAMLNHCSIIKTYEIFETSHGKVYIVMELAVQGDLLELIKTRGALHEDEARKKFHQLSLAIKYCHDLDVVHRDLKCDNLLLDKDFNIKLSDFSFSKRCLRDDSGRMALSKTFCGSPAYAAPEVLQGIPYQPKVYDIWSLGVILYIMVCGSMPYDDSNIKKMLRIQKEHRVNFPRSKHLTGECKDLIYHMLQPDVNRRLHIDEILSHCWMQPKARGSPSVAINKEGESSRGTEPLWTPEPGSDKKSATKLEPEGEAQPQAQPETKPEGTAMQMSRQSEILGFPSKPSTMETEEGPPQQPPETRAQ
Chain of MAP kinase-activated protein kinase 5 (Q8IW41 whole entry): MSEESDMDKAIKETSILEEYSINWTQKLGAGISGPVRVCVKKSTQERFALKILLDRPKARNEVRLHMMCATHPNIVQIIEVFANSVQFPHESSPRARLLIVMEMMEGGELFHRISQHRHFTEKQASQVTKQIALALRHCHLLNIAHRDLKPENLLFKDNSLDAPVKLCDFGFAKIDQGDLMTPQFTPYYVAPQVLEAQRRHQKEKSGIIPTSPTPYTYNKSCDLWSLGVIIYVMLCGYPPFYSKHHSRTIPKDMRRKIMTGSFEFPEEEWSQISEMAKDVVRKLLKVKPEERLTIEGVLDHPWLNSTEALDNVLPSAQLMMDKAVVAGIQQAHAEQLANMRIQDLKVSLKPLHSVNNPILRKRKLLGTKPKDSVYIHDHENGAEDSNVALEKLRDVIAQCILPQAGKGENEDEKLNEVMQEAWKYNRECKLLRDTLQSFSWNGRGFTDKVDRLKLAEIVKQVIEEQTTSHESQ

Ki [1]	Ki [2]	Ki [3]	Ki [4]	Ki (Misshapen-like kinase 1)	Ki [5]	Ki [6]	Ki [7]	Ki [8]	Ki [9]	Ki [10]	Ki [11]	Ki [12]	Ki [13]	Ki (SRSF protein kinase 1)	Ki [14]	Structure (SMILES)	also measured
> 1580 nM (inactive)	794 nM (active)	> 2000 nM (inactive)	> 1580 nM (inactive)	1580 nM (active)	6.31 nM (active)	20 nM (active)	> 631 nM (inactive)	> 3160 nM (inactive)	7.94 nM (active)	1000 nM (active)	> 1580 nM (inactive)	> 1260 nM (inactive)	> 2000 nM (inactive)	1260 nM (active)	> 1260 nM (inactive)	NC(=O)c1cc(-c2ccnc(N)n2)[nH]c1-c1ccc(Cl)cc1Cl	pKi [2]: 6.1; pKi (Misshapen-like kinase 1): 5.8; pKi [5]: 8.2; pKi [6]: 7.7; pKi [9]: 8.1; pKi [10]: 6; pKi (SRSF protein kinase 1): 5.9
> 1580 nM (inactive)	1.26 nM (active)	> 1000 nM (inactive)	> 1580 nM (inactive)	39.8 nM (active)	398 nM (active)	316 nM (active)	> 631 nM (inactive)	15.8 nM (active)	501 nM (active)	7.94 nM (active)	6.31 nM (active)	31.6 nM (active)	398 nM (active)	79.4 nM (active)	50.1 nM (active)	NC(COc1cncc(-c2ccc3c(c2)C(=Cc2ccco2)C(=O)N3)c1)Cc1c[nH]c2ccccc12 (centres undefined)	–
